Experimental data from US11702449B2, “Angiogenesis-inhibiting peptide and composition for preventing and treating angiogenesis-related disease comprising same as active ingredient” (AVIXGEN INC., priority 2015, dated 2023).
Each block holds one molecule with its values, some of them ahead of it. Square brackets hold non-standard residues; d marks the D form. Peptide text beside a SMILES is read from it.

Legend:
[1] = Peptide stability analysis in human serum (HPLC); assay type: in vitro ADME; conditions: for half-life at 1 mg/mL: pH 7.4, human serum
Protocol: (§1) Serum was separated by centrifugation (tabletop centrifuge, 3000 rpm, 20 min) of blood obtained from a healthy person. The serum was filtrated using a filter (Millipore) with a pore size of […], and then 50 μl of the human serum was mixed with 100 μg of RLYE (SEQ ID NO: 2), R(D)LYE (SEQ ID NO: 6), RLYE-NH2 (SEQ ID NO: 3) or Ac-RLYE (SEQ ID NO: 1) (100 μg/50 PBS, pH 7.4), and incubated by time at a constant temperature of 37° C. A peptide concentration of the sample was calculated by a peak area after the sample was separated by C18 reverse phase high-performance liquid chromatography (HPLC; Vydac protein and peptide C18 column, 0.1% trifluoroacetate in H2O for equilibration, and 0.1% trifluoroacetate in acetonitrile for elution).

[2] = tested on: human umbilical cord vascular endothelial cells (HUVECs); assay type: cell-based
Protocol: Migration analysis for human umbilical cord vascular endothelial cells (HUVECs) was carried out using a Transwell culture plate to which a polycarbonate filter (pore size: 8 μm) with a diameter of 6.5 mm was attached. A surface of the filter was coated with 10 μg of gelatin. Fresh M199 medium (1% fetal bovine serum) containing VEGF (10 ng/ml) was added into a lower compartment of the Transwell plate, HUVECs (1×10^6 cells/100 μl) which had reacted with 0.15 nM or 1.5 nM peptides at room temperature for 30 minutes were carefully transferred to an upper compartment of the plate. The resulting HUVECs were cultured in a CO2-constant temperature and humidity chamber for 4 hours, and the cells migrated under the Transwell filter were stained by H&E staining and quantified using an optical microscope.

Peptide stability in PBS = assay type: physicochemical; conditions: incubated in PBS at 37° C.
Protocol: as §1
To evaluate RLYE (SEQ ID NO: 2) stability, an RLYE peptide (SEQ ID NO: 2) was added to each of PBS and human serum, and incubated by time at a constant temperature of 37° C.

[3] = tested on: choroidal neovascularization; experiment: Laser-induced choroidal neovascularization mouse model; assay type: in vivo
Protocol: To prepare a laser-induced choroidal neovascularization animal model, a Bruch membrane between a retinal layer and a choroidal layer was destroyed by irradiating the mouse retina with a diode laser at an intensity of 400 mW and a duration of 50 ms, and then choroidal neovascularization occurred over 14 days. The retinas of 6 week-old male C57BL/6 mice were irradiated with a laser under the above conditions, the formation of a lesion was confirmed through a safety inspection on day 10, and 1 μl of a 1.5 mM EYLR (SEQ ID NO: 5), RLYE (SEQ ID NO: 2) or Ac-RLYE (SEQ ID NO: 1) solution was intravitreally injected. Here, the same amount of saline was injected into the control group. After 4 days (14 days after the laser irradiation), an experiment for analyzing a therapeutic effect was carried out by extracting the eyeballs of the mice. The extracted eyeballs were fixed in 4% paraformaldehyde for 12 hours, and embedded in paraffin. Sections with a thickness of 4 μm were prepared from paraffin tissue, and subjected to H&E staining. Afterward, an image of a section with the largest choroidal neovascular membrane area was taken from each subject, and the area of the choroidal neovascular membrane was quantitatively analyzed using ImageJ program (NIH, Bethesda, Md., USA). In the saline-injected control group, the average of the choroidal neovascular areas was represented as 100%, and a therapeutic effect of each treatment group was analyzed. Meanwhile, 1 ml (1.25 mg) of FITC-dextran (250 kDa) was injected into the left ventricle one hour before extraction of the mouse eyeball to allow systemic perfusion. After extraction, the eyeball was fixed in 4% paraformaldehyde for 1 hour. Then, the cornea and the crystalline lens were cut off by scissors, the retina was carefully removed using forceps to prepare a complex of retina pigment epithelium/choroid/sclera tissues. The retina flat-mounted complex tissue was observed under a fluorescence microscope and photographed.

HUVECs = experiment: Tube formation of vascular endothelial cells on Matrigel (VEGF-induced); assay type: cell-based, human
Protocol: A degree of tube formation of HUVECs was determined using growth factor-reduced Matrigel. 250 μl of the Matrigel (10 mg protein/ml) was added into a 24-well plate to allow polymerization for 30 minutes at 37° C. HUVECs cultured in M199 (1% fetal bovine serum) medium for 6 hours were carefully transferred onto the Matrigel in the culture plate at a density of 2×10^5 cells/well, and VEGF (10 ng/ml) were cultured alone or with peptides (0.15 nM) at 37° C. for 20 hours. Meanwhile, peptides that were reacted in PBS or fresh human serum for 3 hours were also used. The degree of tube formation of HUVECs was visualized using an inverted phase-contrast microscope, and a length of the formed tube was measured and quantified by Image-Pro Plus version 4.5 (Media Cybernetics, San Diego, Calif.).

HCT116 xenograft = experiment: Human colon cancer (HCT116) xenografted mouse model, tumor size and growth; assay type: in vivo
Protocol: Human colon cancer cells (HCT116, 1×10^7 cells/100 μl) were subcutaneously injected into the left side of a nude mouse (BALB/c nu/nu, 6 week old, male), and then when a tumor volume reached at least 50 to 70 mm^3 (approx. 7 days), physiological saline (negative control), RLYE (SEQ ID NO: 2) (1.0 mg/kg), R(D)LYE (SEQ ID NO: 6) (1.0 mg/kg) or Ac-RLYE (SEQ ID NO: 1) (1.0 mg/kg; abnormal, experimental group) was intraperitoneally injected once a day. A VEGF neutralizing antibody, bevacizumab, was intraperitoneally injected at 2 mg/kg twice a week (positive control). A tumor size was two-dimensionally measured using calipers. A tumor volume (mm^3) was calculated by the formula: width^2×length×0.52.

[4] = tested on: tumor vessels of HCT116 xenograft; experiment: Measurement of tumor angiogenesis (FITC-isolectin B4 staining); assay type: in vivo, mouse; conditions: FITC-isolectin B4 staining of tumor tissue
Protocol: Tumor tissue was fixed with 10% formalin, and inserted into paraffin. A slide was prepared using a tumor tissue section, immersed in xylene to remove paraffin, and rehydrated by stepwise treatment with 100%, 95%, 80%, and 70% ethanol. Afterward, the slide was washed with deionized water several times at room temperature. To inhibit the intracellular activity of a peroxidase, the tissue section was reacted in 0.3% hydrogen peroxide-containing methanol for 15 minutes, and washed with PBS three times. The tissue section was reacted in 3% goat serum-containing PBS for 2 hours at room temperature, and reacted with FITC-isolectin B4 ([…]; Vector Laboratories) for 1 hour. The tissue section was washed with PBS three times and then a permanent slide was prepared using a cryo-mount solution (OCT mouting medium, Tissue Tek, Sakura Finetek), and then tumor vessels were visualized using a fluorescence microscope.

retinal vascular leakage = experiment: Streptozotocin (STZ)-induced diabetic retinopathy mouse model, retinal vascular leakage; assay type: in vivo; conditions: STZ diabetic mice
Protocol: A freshly prepared STZ solution (100 mM) in a citrate buffer (100 mM, pH 4.5) was intraperitoneally injected at 150 mg/kg into the mice, and to prevent hypoglycemic shock, 10% sucrose was sufficiently provided. After two days, blood glucose was measured using an Accu-Chek Performa blood glucose meter (Roche Diagnostics GmbH, Germany), and when non-fasting blood glucose within 1 to 2 weeks was maintained at 300 mg/dl or more, the mice were used as diabetic animal models. The diabetes-induced mice were anesthetized with 2% avertin, and 1 μl of a 1.5 mM EYLR (SEQ ID NO: 5), RLYE (SEQ ID NO: 2) or Ac-RLYE (SEQ ID NO: 1) solution was intravitreally injected. Here, the same amount of PBS was injected into the control group. The peptide was injected, and after 24 hours, 1 ml (1.25 mg) of FITC-dextran (250 kDa) was injected into the left ventricle of each mouse to allow circulation for approximately 5 minutes. The mice were euthanized by cervical dislocation, and the eyeballs were extracted and fixed in 4% paraformaldehyde at room temperature for 1 hour. The retina was isolated from the fixed eyeball to prepare a retinal flat mount, and vascular leakage was observed under a confocal microscope. Meanwhile, the fluorescence of FITC-dextran leaked from retinal vessels was measured using Fluoview software.

[5] = 1 μl of 1.5 mM solution intravitreal, H&E area analysis

- half-life at 1 mg/mL ([1]; 37° C.): 7 h
Molecule: CC(C)C[C@H](NC(=O)[C@H](N)CCCNC(=N)N)C(=O)N[C@@H](Cc1ccc(O)cc1)C(=O)N[C@@H](CCC(=O)O)C(=O)O [R(D)LYE] (H-[dR]LYE-OH; N-terminus and C-terminus assumed)
- IC50 [2]: 0.06 nM

- RLYE degradation induced by albumin ([1]; albumin added, 37° C.): did not induce
- RLYE degradation by human serum with bestatin ([1]; aminopeptidase B inhibitor bestatin added): effectively inhibited
- half-life at 1 mg/mL ([1]; 37° C.): 1.2 h
- degradation in PBS (Peptide stability in PBS): did not occur
Molecule: CC(C)C[C@H](NC(=O)[C@@H](N)CCCNC(=N)N)C(=O)N[C@@H](Cc1ccc(O)cc1)C(=O)N[C@@H](CCC(=O)O)C(=O)O [RLYE, Arg-Leu-Tyr-Glu, reference compound] (H-RLYE-OH; N-terminus and C-terminus assumed)
- IC50 [2]: 0.08 nM

Molecule: CC(=O)N[C@@H](CCCNC(=N)N)C(=O)N[C@@H](CC(C)C)C(=O)N[C@@H](Cc1ccc(O)cc1)C(=O)N[C@@H](CCC(=O)O)C(N)=O [Ac-RLYE-NH2] (Ac-RLYE-NH2)
- IC50 [2]: 80.2 nM

- half-life at 1 mg/mL ([1]; 37° C.): 1.3 h
Molecule: CC(C)C[C@H](NC(=O)[C@@H](N)CCCNC(=N)N)C(=O)N[C@@H](Cc1ccc(O)cc1)C(=O)N[C@@H](CCC(=O)O)C(N)=O [RLYE-NH2] (H-RLYE-NH2; N-terminus assumed)
- IC50 [2]: 0.11 nM

Molecule: EYLR: reverse-sequence of the RLYE peptide [reference compound]
- effect on choroidal neovascularization [3, 5]: had no change

- half-life at 1 mg/mL ([1]; 37° C.): 8.8 h
Molecule: CC(=O)N[C@@H](CCCNC(=N)N)C(=O)N[C@@H](CC(C)C)C(=O)N[C@@H](Cc1ccc(O)cc1)C(=O)N[C@@H](CCC(=O)O)C(=O)O [Ac-RLYE] (Ac-RLYE-OH; C-terminus assumed)
- IC50 [2]: 0.05 nM
- inhibition of VEGF-induced tube formation (HUVECs; peptides pretreated with PBS for 3 hours): effectively inhibited
- inhibition of VEGF-induced tube formation (HUVECs; peptides pretreated with human serum for three hours): effectively inhibited
- anticancer effect compared with RLYE (HCT116 xenograft; 1.0 mg/kg/day intraperitoneal, HCT116 nude mouse): higher than that of RLYE
- effect on size and growth of tumor (HCT116 xenograft; 1.0 mg/kg/day intraperitoneal, once a day, HCT116 nude mouse): inhibited the size and growth of a tumor
- anticancer effect compared with bevacizumab (HCT116 xenograft; peptide 1.0 mg/kg/day i.p., bevacizumab 2.0 mg/kg twice a week): a little lower than that of the positive control bevacizumab
- effect of inhibiting cancer angiogenesis compared with RLYE [4]: higher than that of RLYE
- choroidal neovascularization inhibition compared with RLYE [3, 5]: highly effective compared to RLYE
- effect on choroidal neovascularization [3, 5]: effectively reduced
- choroidal neovascularization inhibition compared with RLYE, retinal flat mount ([3]; FITC-dextran, retinal flat mount technique): higher effect of inhibiting choroidal neovascularization than RLYE
- effect on retinal vascular leakage (retinal vascular leakage; 1 μl of 1.5 mM solution intravitreal, 24 hours): effectively inhibited
- inhibitory effect on retinal vascular leakage compared with RLYE (retinal vascular leakage; intravitreal): higher inhibitory effect on blood vascular leakage than RLYE
